Assay results taken from patent US10821115B2, “Compounds that inhibit Mcl-1 protein” (priority 2017, dated 2020).
Where two headings read alike, the source gives them in different places.

How the values were obtained:
[1] = test system: human multiple myeloma cell line, OPM-2; assay: Cell viability assay (OPM-2 10 FBS), CellTiter-Glo; format: cell-based
Summary of the method: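 Cells were seeded at 3000 cells/well in RPMI 1640 with 10% FBS and exposed to serially diluted compounds for 16 h at 37 °C, 5% CO2.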

[2] = biological target: recombinant human Mcl-1 (residues 171-327) / Bim interaction (Homo sapiens (Human), UniProt Q07820); assay: biochemical; format: binding; conditions: 0.1 nM Mcl-1(171-327), 0.05 nM biotin-Bim (51-76); read-out: Mcl-1 HTRF IC50
[3] = Homo sapiens, OPM-2, 16 h, read-out: OPM-2 10% FBS IC50 IP, OPM-2 cells, 10% FBS, 16 h incubation
[4] = read-out: OPM-2 10% FBS IC50 IP, OPM-2 cells, 10% FBS, 16 h incubation

recombinant human Mcl-1 (residues 171-327) / Bim interaction, sequence (Q07820 171-327): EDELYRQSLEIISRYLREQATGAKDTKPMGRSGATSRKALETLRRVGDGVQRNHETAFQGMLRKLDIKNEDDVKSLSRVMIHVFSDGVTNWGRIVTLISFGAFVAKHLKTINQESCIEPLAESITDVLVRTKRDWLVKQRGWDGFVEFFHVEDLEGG

Work on `CO[C@]1(CN2CCCCC2)/C=C/C[C@H](C)[C@@H](C)S(=O)(=O)NC(=O)c2ccc3c(c2)N(C[C@@H]2CC[C@H]21)C[C@@]1(CCCc2cc(Cl)ccc21)CO3` [Example 74, (1S,3′R,6′R,7′R,8′E,11′S,12′R)-6-chloro-7′-methoxy-11′,12′-dimethyl-7′-(1-piperidinylmethyl)-3,4-dihydro-2H,15′H-spiro[naphthalene-1,22′-[20]oxa[13]thia[1,14]diazatetracyclo [14.7.2.0~3,6~.0~19,24~]pentacosa[8,16,18,24]tetraen]-15′-one 13′,13′-dioxide] yielded an IC50 [1, 3] of 3360 nM and an IC50 [2] of 2.29 nM.
`CO[C@@]1(CN2CCCCC2)/C=C/C[C@H](C)[C@@H](C)S(=O)(=O)NC(=O)c2ccc3c(c2)N(C[C@@H]2CC[C@H]21)C[C@@]1(CCCc2cc(Cl)ccc21)CO3` [Example 75, (1S,3′R,6′R,7′S,8′E,11′S,12′R)-6-chloro-7′-methoxy-11′,12′-dimethyl-7′-(1-piperidinylmethyl)-3,4-dihydro-2H,15′H-spiro[naphthalene-1,22′-[20]oxa[13]thia[1,14]diazatetracyclo [14.7.2.0~3,6~.0~19,24~]pentacosa[8,16,18,24]tetraen]-15′-one 13′,13′-dioxide] gave an IC50 [1, 3] of 1610 nM and an IC50 [2] of 2.05 nM.
Compound `CO[C@]1(CN2CCC2)/C=C/C[C@H](C)[C@@H](C)S(=O)(=O)NC(=O)c2ccc3c(c2)N(C[C@@H]2CC[C@H]21)C[C@@]1(CCCc2cc(Cl)ccc21)CO3` [Example 76, (1S,3′R,6′R,7′R,8′E,11′S,12′R)-7′-(1-azetidinylmethyl)-6-chloro-7′-methoxy-11′,12′-dimethyl-3,4-dihydro-2H,15′H-spiro[naphthalene-1,22′-[20]oxa[13]thia[1,14]diazatetracyclo [14.7.2.0~3,6~.0~19,24~]pentacosa[8,16,18,24]tetraen]-15′-one 13′,13′-dioxide] has an IC50 [1, 3] of 670 nM and an IC50 [2] of 3.81 nM.
`CO[C@@]1(CN2CCC2)/C=C/C[C@H](C)[C@@H](C)S(=O)(=O)NC(=O)c2ccc3c(c2)N(C[C@@H]2CC[C@H]21)C[C@@]1(CCCc2cc(Cl)ccc21)CO3` [Example 77, (1S,3′R,6′R,7′S,8′E,11′S,12′R)-7′-(1-azetidinylmethyl)-6-chloro-7′-methoxy-11′,12′-dimethyl-3,4-dihydro-2H,15′H-spiro[naphthalene-1,22′-[20]oxa[13]thia[1,14]diazatetracyclo [14.7.2.0~3,6~.0~19,24~]pentacosa[8,16,18,24]tetraen]-15′-one 13′,13′-dioxide] showed an IC50 [1, 3] of 415 nM and an IC50 [2] of 1.22 nM.
`CO[C@]1(CN2C[C@H]3CN(C)C[C@H]3C2)/C=C/C[C@H](C)[C@@H](C)S(=O)(=O)NC(=O)c2ccc3c(c2)N(C[C@@H]2CC[C@H]21)C[C@@]1(CCCc2cc(Cl)ccc21)CO3` [Example 82] showed an IC50 [1, 3] of 520 nM and an IC50 [2] of 0.394 nM.
`CO[C@]1(CN2CCN3CCC[C@@H]3C2)/C=C/C[C@H](C)[C@@H](C)S(=O)(=O)NC(=O)c2ccc3c(c2)N(C[C@@H]2CC[C@H]21)C[C@@]1(CCCc2cc(Cl)ccc21)CO3` [Example 83] showed an IC50 [1, 4] of 245 nM and an IC50 [2] of 0.223 nM.
`CO[C@]1(CN2CC(N3CCOCC3)C2)/C=C/C[C@H](C)[C@@H](C)S(=O)(=O)NC(=O)c2ccc3c(c2)N(C[C@@H]2CC[C@H]21)C[C@@]1(CCCc2cc(Cl)ccc21)CO3` [Example 84, (1S,3′R,6′R,7′R,8′E,11′S,12′R)-6-chloro-7′-methoxy-11′,12′-dimethyl-7′-((3-(4-morpholinyl)-1-azetidinyl)methyl)-3,4-dihydro-2H,15′H-spiro[naphthalene-1,22′-[20]oxa[13]thia[1,14]diazatetracyclo [14.7.2.0~3,6~.0~19,24~]pentacosa[8,16,18,24]tetraen]-15′-one 13′,13′-dioxide] gave an IC50 [1, 3] of 61 nM and an IC50 [2] of 0.106 nM.
`CO[C@]1(CN2CCC(N3CCOCC3)CC2)/C=C/C[C@H](C)[C@@H](C)S(=O)(=O)NC(=O)c2ccc3c(c2)N(C[C@@H]2CC[C@H]21)C[C@@]1(CCCc2cc(Cl)ccc21)CO3` [Example 85, (1S,3′R,6′R,7′R,8′E,11′S,12′R)-6-chloro-7′-methoxy-11′,12′-dimethyl-7′-((4-(4-morpholinyl)-1-piperidinyl)methyl)-3,4-dihydro-2H,15′H-spiro[naphthalene-1,22′-[20]oxa[13]thia[1,14]diazatetracyclo [14.7.2.0~3,6~.0~19,24~]pentacosa[8,16,18,24]tetraen]-15′-one 13′,13′-dioxide] was tested, and the IC50 [1, 3] was 274 nM and the IC50 [2] was 0.491 nM.
Work on `CO[C@]1(CN2CC[C@H]3CCCC[C@@H]3C2)/C=C/C[C@H](C)[C@@H](C)S(=O)(=O)NC(=O)c2ccc3c(c2)N(C[C@@H]2CC[C@H]21)C[C@@]1(CCCc2cc(Cl)ccc21)CO3` [Example 86] yielded an IC50 [1, 4] of 7950 nM and an IC50 [2] of 3.9 nM.
`CCN1CCN(C[C@@]2(OC)/C=C/C[C@H](C)[C@@H](C)S(=O)(=O)NC(=O)c3ccc4c(c3)N(C[C@@H]3CC[C@H]32)C[C@@]2(CCCc3cc(Cl)ccc32)CO4)CC1` [Example 88, (1S,3′R,6′R,7′R,8′E,11′S,12′R)-6-chloro-7′-((4-ethyl-1-piperazinyl)methyl)-7′-methoxy-11′,12′-dimethyl-3,4-dihydro-2H,15′H-spiro[naphthalene-1,22′-[20]oxa[13]thia[1,14]diazatetracyclo [14.7.2.0~3,6~.0~19,24~]pentacosa[8,16,18,24]tetraen]-15′-one 13′,13′-dioxide] showed an IC50 [1, 3] of 74 nM and an IC50 [2] of 0.139 nM.
`CO[C@]1(CN2CCN(C3CC3)CC2)/C=C/C[C@H](C)[C@@H](C)S(=O)(=O)NC(=O)c2ccc3c(c2)N(C[C@@H]2CC[C@H]21)C[C@@]1(CCCc2cc(Cl)ccc21)CO3` [Example 91, (1S,3′R,6′R,7′R,8′E,11′S,12′R)-6-chloro-7′-((4-cyclopropyl-1-piperazinyl)methyl)-7′-methoxy-11′,12′-dimethyl-3,4-dihydro-2H,15′H-spiro[naphthalene-1,22′-[20]oxa[13]thia[1,14]diazatetracyclo [14.7.2.0~3,6~.0~19,24~]pentacosa[8,16,18,24]tetraen]-15′-one 13′,13′-dioxide] gave an IC50 [1, 3] of 559 nM and an IC50 [2] of 0.203 nM.
In the case of `CO[C@]1(CN2CCN(C3CCC3)CC2)/C=C/C[C@H](C)[C@@H](C)S(=O)(=O)NC(=O)c2ccc3c(c2)N(C[C@@H]2CC[C@H]21)C[C@@]1(CCCc2cc(Cl)ccc21)CO3` [Example 92, (1S,3′R,6′R,7′R,8′E,11′S,12′R)-6-chloro-7′-((4-cyclobutyl-1-piperazinyl)methyl)-7′-methoxy-11′,12′-dimethyl-3,4-dihydro-2H,15′H-spiro[naphthalene-1,22′-[20]oxa[13]thia[1,14]diazatetracyclo [14.7.2.0~3,6~.0~19,24~]pentacosa[8,16,18,24]tetraen]-15′-one 13′,13′-dioxide], the IC50 [1, 3] is reported as 199 nM and the IC50 [2] is reported as 0.143 nM.
For `COCCN(C)C1CN(C[C@@]2(OC)/C=C/C[C@H](C)[C@@H](C)S(=O)(=O)NC(=O)c3ccc4c(c3)N(C[C@@H]3CC[C@H]32)C[C@@]2(CCCc3cc(Cl)ccc32)CO4)C1` [Example 94, (1S,3′R,6′R,7′R,8′E,11′S,12′R)-6-chloro-7′-methoxy-7′-((3-((2-methoxyethyl)(methyl)amino)-1-azetidinyl)methyl)-11′,12′-dimethyl-3,4-dihydro-2H,15′H-spiro[naphthalene-1,22′-[20]oxa[13]thia[1,14]diazatetracyclo [14.7.2.0~3,6~.0~19,24~]pentacosa[8,16,18,24]tetraen]-15′-one 13′,13′-dioxide], the IC50 [1, 3] was 140 nM and the IC50 [2] was 0.191 nM.
`CO[C@]1(CN2CCN(CC(F)F)CC2)/C=C/C[C@H](C)[C@@H](C)S(=O)(=O)NC(=O)c2ccc3c(c2)N(C[C@@H]2CC[C@H]21)C[C@@]1(CCCc2cc(Cl)ccc21)CO3` [Example 95, (1S,3′R,6′R,7′R,8′E,11′S,12′R)-6-chloro-7′-((4-(2,2-difluoroethyl)-1-piperazinyl)methyl)-7′-methoxy-11′,12′-dimethyl-3,4-dihydro-2H,15′H-spiro[naphthalene-1,22′-[20]oxa[13]thia[1,14]diazatetracyclo [14.7.2.0~3,6~.0~19,24~]pentacosa[8,16,18,24]tetraen]-15′-one 13′,13′-dioxide] was tested, and the IC50 [1, 3] was 338 nM and the IC50 [2] was 0.189 nM.
For `CO[C@]1(CN2CCN(CCF)CC2)/C=C/C[C@H](C)[C@@H](C)S(=O)(=O)NC(=O)c2ccc3c(c2)N(C[C@@H]2CC[C@H]21)C[C@@]1(CCCc2cc(Cl)ccc21)CO3` [Example 96, (1S,3′R,6′R,7′R,8′E,11′S,12′R)-6-chloro-7′-((4-(2-fluoroethyl)-1-piperazinyl)methyl)-7′-methoxy-11′,12′-dimethyl-3,4-dihydro-2H,15′H-spiro[naphthalene-1,22′-[20]oxa[13]thia[1,14]diazatetracyclo [14.7.2.0~3,6~.0~19,24~]pentacosa[8,16,18,24]tetraen]-15′-one 13′,13′-dioxide], the IC50 [1, 3] was 111 nM and the IC50 [2] was 0.114 nM.
Work on `CCCN1CCN(C[C@@]2(OC)/C=C/C[C@H](C)[C@@H](C)S(=O)(=O)NC(=O)c3ccc4c(c3)N(C[C@@H]3CC[C@H]32)C[C@@]2(CCCc3cc(Cl)ccc32)CO4)CC1` [Example 97, (1S,3′R,6′R,7′R,8′E,11′S,12′R)-6-chloro-7′-methoxy-11′,12′-dimethyl-7′-((4-propyl-1-piperazinyl)methyl)-3,4-dihydro-2H,15′H-spiro[naphthalene-1,22′-[20]oxa[13]thia[1,14]diazatetracyclo [14.7.2.0~3,6~.0~19,24~]pentacosa[8,16,18,24]tetraen]-15′-one 13′,13′-dioxide] yielded an IC50 [1, 3] of 228 nM and an IC50 [2] of 0.299 nM.
